Measurements as given in patent US7399754B2, “N2-quinoline or isoquinoline substituted purine derivatives” (priority 2005, dated 2008).
pIC50: −log10 of the molar value. ≈ marks a conversion by molar mass, not a printed value.

Legend:
[1] = system: H-22 liver cancer cells; assay: MTT and SRB growth inhibition assays; format: cell-based
Description: (§1) The anti-cancer activities of COMPOUND I were evaluated using the microtetrazoline (MTT) and sulforhodamine B (SRB) assays.

[2] = system: leukemia cells; assay: MTT and SRB growth inhibition assays; format: cell-based
Description: as §1

[3] = system: LNCap prostate cancer cells; assay: Pulse-exposure clonal growth study; format: cell-based
From the text: (§2) Pulse-exposure studies, using methods as described in Kubota et al., Cancer Res. 1998; 58: 3370-3375 and Campbell et al., J. Mol. Endocrinol.

[4] = system: PC-3 prostate cancer cells; assay: Pulse-exposure clonal growth study; format: cell-based; conditions: PC-3, pulse-exposure
From the text: as §2

[5] = system: Du145 prostate cancer cells; assay: Pulse-exposure clonal growth study; format: cell-based
From the text: as §2

[6] = system: H-22 liver cancer; assay: Subcutaneous H-22 liver cancer growth in mice; format: in vivo; conditions: 50 mg/kg daily intralesional, 14 days treatment period
Description: (§3) To determine if Compound I could inhibit primary tumor growth, syngeneic mice (C57B 16/J) bearing subcutaneous Lewis lung carcinomas and H-22 liver cancer were treated with Compound I with daily intralesional injections of (50 mg/kg) 1 mg of Compound I per 20 g mouse body weight.

[7] = system: malignant cells; assay: Clonal proliferation, cell cycle and apoptosis of malignant cells in vitro; format: cell-based
From the text: as §2

[8] = system: human cancer cells; assay: Human cancer cells transplanted to nude mice; format: in vivo
From the text: The in vivo anti-cancer activities of COMPOUND I were further evaluated using various other human cancer cells transplanted to nude mice.

[9] = system: Lewis lung carcinoma cells; assay: MTT and SRB growth inhibition assays; format: cell-based, murine; conditions: Mus musculus
Description: as §1

[10] = system: most cancer types; assay: MTT and SRB growth inhibition assays, many cancer types; format: cell-based
Description: as §1

[11] = system: Lewis lung carcinomas; assay: Subcutaneous Lewis lung carcinoma growth in mice; format: in vivo; conditions: for Tumor vol.: daily intralesional injections 50 mg/kg
Description: as §3
Inhibition of primary tumor growth was first observed at dose of 20 mg/kg/day. Increased doses of Compound I correlated with increased efficacy of tumor inhibition. Inhibition of metastatic growth occurred at doses of approximately 20 mg/kg/day. […] In contrast, tumor in animals treated with saline grew rapidly in size to >6.000 mm^3, leading to the demise of all animals on day 17 after tumor implantation.

## c1cnc2ccc(Nc3nc(NC4CC4)c4nc[nH]c4n3)cc2c1 [Compound I]
[1]
  IC50: 2.24 µg/mL (≈ 7.06 µM)
[2]
  IC50: 2.5 µg/mL (≈ 7.88 µM)
[3]
  50% inhibition (ED50) of clonal growth: approximately 18 μg/ml
[4]
  50% inhibition (ED50) of clonal growth: approximately 18 μg/ml
[5]
  50% inhibition (ED50) of clonal growth: approximately 18 μg/ml
[6]
  growth of H-22 liver cancer in mice: primary tumor growth was inhibited
[7]; prostate and breast cancers, neuroepithelioma, melanoma, leukemia
  clonal proliferation of a variety of malignant cells in vitro: inhibit the clonal proliferation
[7]; some of these cells
  cell cycle arrest and apoptosis: induces cell cycle arrest and apoptosis
[8]
  in vivo growth of human cancers: inhibits in vivo growth of many types of human cancers
[9]
  IC50: 2.81 µg/mL (≈ 8.85 µM)
[10]; MTT and SRB assays
  growth in vitro of many types of cancers: significantly inhibited growth
[10]; most cancer types
  pIC50: 5.52 to 6.30
[11]; day 2
  Tumor vol.: 200 mm^3
[11]; day 4
  Tumor vol.: 300 mm^3
[11]; day 6
  Tumor vol.: 500 mm^3
[11]; day 8
  Tumor vol.: 700 mm^3
[11]; day 10
  Tumor vol.: 900 mm^3
[11]; day 12
  Tumor vol.: 1200 mm^3
[11]; day 14
  Tumor vol.: 1500 mm^3
[11]; day 16
  Tumor vol.: 1800 mm^3
[11]; day 17
  Tumor vol.: 2200 mm^3
[11]; treated tumor-bearing mice
  toxicity: no detectable toxicity
[11]; tumor-bearing mice
  dose at which inhibition of metastatic growth occurred: approximately 20 mg/kg/day
  dose at which inhibition of primary tumor growth was first observed: 20 mg/kg/day
